Data: patent US20230287003A1, “BCL6 INHIBITORS” (Cancer Research Technology Limited, priority 2018, published 2023)
Where two headings read alike, the source gives them in different places.

Target: human BCL6 BTB domain (Trx-6×His-BCL6) / BCOR-AF633 peptide (Homo sapiens (Human), UniProt P41182)
Test: HTRF assay
Type: binding
[1] = 1 nM Trx-6×His-BCL6, 300 nM BCOR-AF633 peptide, 2 hours incubation
[2] = HTRF avg pIC50 (1 nM), 1 nM Trx-6×His-BCL6, 300 nM BCOR-AF633 peptide, 2 hours incubation
[3] = read-out: IC50 in the HTRF assay

Row | Compound | HTRF avg pIC50 (1 nM) [1] | other results
1 | Cn1c(=O)c2c(c3cc(Nc4cc(C(=O)O)nc(Cl)c4C#N)ccc31)N[C@@H](C1CC1)CCO2 [Example 2b, (R)-6-chloro-5-cyano-4-((2-cyclopropyl-7-methyl-6-oxo-1,2,3,4,6,7-hexahydro-[1,4]oxazepino[2,3-c]quinolin-10-yl)amino)picolinic acid] | – | IC50 [2]: 8.91 nM
2 | Cn1c(=O)c2c(c3cc(Nc4ccnc(Cl)c4C#N)ccc31)NC(C1CC1)COC2=O (stereo not drawn) [Example 6c, 2-chloro-4-((2-cyclopropyl-7-methyl-5,6-dioxo-1,2,3,5,6,7-hexahydro-[1,4]oxazepino[6,5-c]quinolin-10-yl)amino)nicotinonitrile] | 6.71 | –
3 | C[C@H]1CCOc2c(c3cc(Nc4cc(C(=O)O)nc(Cl)c4C#N)ccc3n(C)c2=O)N1 [Example 2a, (S)-6-chloro-5-cyano-4-((2,7-dimethyl-6-oxo-1,2,3,4,6,7-hexahydro-[1,4]ox-azepino[2,3-c]quinolin-10-yl)amino)picolinic acid] | 7.26 | –
4 | Cn1c(=O)c2c(c3cc(Nc4ccnc(Cl)c4C#N)ccc31)NC(C1CCC1)CCO2 (stereo not drawn) [2-chloro-4-((2-cyclobutyl-7-methyl-6-oxo-1,2,3,4,6,7-hexahydro-[1,4]oxazepino[2,3-c]quinolin-10-yl)amino)nicotinonitrile] | – | IC50 [3]: > 2500 nM
5 | COCC1(C)CCOc2c(c3cc(Nc4nc(-n5ccc(C(F)(F)F)n5)ncc4Cl)ccc3n(C)c2=O)N1 (stereo not drawn) [Example 5b, 10-((5-chloro-2-(3-(trifluoromethyl)-1H-pyrazol-1-yl)pyrimidin-4-yl)amino)-2-(methoxymethyl)-2,7-dimethyl-1,2,3,4-tetrahydro-[1,4]oxazepino[2,3-c]quinolin-6(7H)-one] | 6.09 | –
6 | CC(=O)N1CC2CC(C1)CN(c1ncc(Cl)c(Nc3ccc4c(c3)c3c(c(=O)n4C)C(=O)OC[C@H](C)N3)n1)C2 [(2S)-10-((2-(7-acetyl-3,7-diazabicyclo[3.3.1]nonan-3-yl)-5-chloropyrimidin-4-yl)amino)-2,7-dimethyl-2,3-dihydro-[1,4]oxazepino[6,5-c]quinoline-5,6(1H,7H)-dione] | – | IC50 [3]: > 2500 nM
7 | CC1Nc2c(c(=O)n(C)c3ccc(Nc4nc(N5C[C@H](C)C[C@H](C)C5)ncc4Cl)cc23)C(=O)OC1C (mixture of isomers) [Example 8q, rac-(2S,3R)-10-((5-chloro-2-((3S,5R)-3,5-dimethylpiperidin-1-yl)pyrimidin-4-yl)amino)-2,3,7-trimethyl-2,3-dihydro-[1,4]oxazepino[6,5-c]quinoline-5,6(1H,7H)-dione or rac-(2S,3S)-10-((5-chloro-2-((3S,5R)-3,5-dimethylpiperidin-1-yl)pyrimidin-4-yl)amino)-2,3,7-trimethyl-2,3-dihydro-[1,4]oxazepino[6,5-c]quinoline-5,6(1H,7H)-dione] | – | IC50 [2]: 479 nM
8 | CC1Nc2c(c(=O)n(C)c3ccc(Nc4ccnc(Cl)c4C#N)cc23)C(=O)OC1C (stereo not drawn) [Example 6d, 2-chloro-4-((2,3,7-trimethyl-5,6-dioxo-1,2,3,5,6,7-hexahydro-[1,4]oxazepino[6,5-c]quinolin-10-yl)amino)nicotinonitrile] | – | IC50 [2]: 214 nM
9 | COc1cnc(N2C[C@@H](C)C(F)(F)[C@@H](C)C2)nc1Nc1ccc2c(c1)c1c(c(=O)n2C)OCC[C@H](C2CC2)N1 [(R)-2-cyclopropyl-10-((2-((3S,5R)-4,4-difluoro-3,5-dimethylpiperidin-1-yl)-5-methoxypyrimidin-4-yl)amino)-7-methyl-1,2,3,4-tetrahydro-[1,4]oxazepino[2,3-c]quinolin-6(7H)-one] | – | IC50 [3]: > 2500 nM
10 | Cn1c(=O)c2c(c3cc(Nc4ccnc(Cl)c4C#N)ccc31)NC(C(F)F)CCO2 (stereo not drawn) [Example 1p, 2-chloro-4-((2-(difluoromethyl)-7-methyl-6-oxo-1,2,3,4,6,7-hexahydro-[1,4]oxazepino[2,3-c]quinolin-10-yl)amino)nicotinonitrile] | 5.67 | –

Now from value to compound, other results behind:

Row | HTRF avg pIC50 (1 nM) [1] | Compound | other results
11 | 8.60 | C[C@@H]1C[C@H](O)CN(c2ncc(Cl)c(Nc3ccc4c(c3)c3c(c(=O)n4C)OCC(F)(F)[C@H](C4CC4)N3)n2)C1 (single isomer, unassigned) [Example 13e, (S)-10-((5-chloro-2-((3S,5R)-3-hydroxy-5-methylpiperidin-1-yl)pyrimidin-4-yl)amino)-2-cyclopropyl-3,3-difluoro-7-methyl-1,2,3,4-tetrahydro-[1,4]oxazepino[2,3-c]quinolin-6(7H)-one or (S)-10-((5-chloro-2-((3R,5S)-3-hydroxy-5-methylpiperidin-1-yl)pyrimidin-4-yl)amino)-2-cyclopropyl-3,3-difluoro-7-methyl-1,2,3,4-tetrahydro-[1,4]oxazepino[2,3-c]quinolin-6(7H)-one] | –
12 | 8.34 | (S)-10-((5-chloro-2-((R)-4,4-difluoro-3- (hydroxymethyl)piperidin-1-yl)pyrimidin-4-yl)amino)-2-cyclopropyl- 3,3-difluoro-7-methyl-1,2,3,4-tetrahydro-[1,4]oxazepino[2,3-c]quinolin- 6(7H)-one or (S)-10-((5-chloro-2-((S)-4,4-difluoro-3- (hydroxymethyl)piperidin-1-yl)pyrimidin-4-yl)amino)-2-cyclopropyl- 3,3-difluoro-7-methyl-1,2,3,4-tetrahydro-[1,4]oxazepino[2,3-c]quinolin- 6(7H)-one [Example 12p] | –
13 | 6.98 | (R)-10-((5-chloro-2-((R)-4,4-difluoro-3- methylpiperidin-1-yl)pyrimidin-4-yl)amino)-2-cyclopropyl-7- methyl-1,2,3,4-tetrahydro-[1,4]oxazepino[2,3-c]quinolin- 6(7H)-one or (R)-10-((5-chloro-2-((S)-4,4-difluoro-3- methylpiperidin-1-yl)pyrimidin-4-yl)amino)-2-cyclopropyl- 7-methyl-1,2,3,4-tetrahydro-[1,4]oxazepino[2,3-c]quinolin- 6(7H)-one [Example 14b] | –
14 | 7.74 | C[C@@H]1CN(c2ncc(Cl)c(Nc3ccc4c(c3)c3c(c(=O)n4C)OCC(F)(F)[C@H](C4CC4)N3)n2)C[C@H](C)C1(F)F [Example 12o, (S)-10-((5-chloro-2-((3S,5R)-4,4-difluoro-3,5-dimethylpiperidin-1-yl)pyrimidin-4-yl)amino)-2-cyclopropyl-3,3-difluoro-7-methyl-1,2,3,4-tetrahydro-[1,4]oxazepino[2,3-c]quinolin-6(7H)-one] | –
15 | 6.84 | C[C@@H]1CN(c2ncc(Cl)c(Nc3ccc4c(c3)c3c(c(=O)n4C)SCC[C@H](C4CC4)N3)n2)C[C@H](C)C1(F)F [Example 12m, (R)-10-((5-chloro-2-((3S,5R)-4,4-difluoro-3,5-dimethylpiperidin-1-yl)pyrimidin-4-yl)amino)-2-cyclopropyl-7-methyl-1,2,3,4-tetrahydro-[1,4]thiazepino[2,3-c]quinolin-6(7H)-one] | –
16 | 6.99 | (S)-10-((5-chloro-2-((3S,5R)-3-hydroxy-5- methylpiperidin-1-yl)pyrimidin-4-yl)amino)-2,7-dimethyl-1,2,3,4- tetrahydro-[1,4]oxazepino[2,3-c]quinolin-6(7H)-one or (S)-10-((5- chloro-2-((3R,5S)-3-hydroxy-5-methylpiperidin-1-yl)pyrimidin-4- yl)amino)-2,7-dimethyl-1,2,3,4-tetrahydro- [1,4]oxazepino[2,3-c]quinolin-6(7H)-one [Example 12l] | –
17 | 6.78 | C[C@H]1COC(=O)c2c(c3cc(Nc4nc(N5CCC(C(=O)N(C)C)CC5)ncc4Cl)ccc3n(C)c2=O)N1 [Example 8d, (S)-1-(5-chloro-4-((2,7-dimethyl-5,6-dioxo-1,2,3,5,6,7-hexahydro-[1,4]oxazepino[6,5-c]quinolin-10-yl)amino)pyrimidin-2-yl)-N,N-dimethylpiperidine-4-carboxamide] | –
18 | 8.66 | Cn1c(=O)c2c(c3cc(Nc4nc(N5CCN(CCC#N)CC5)ncc4Cl)ccc31)N[C@@H](C1CC1)C(F)(F)CO2 [Example 13f, (S)-3-(4-(5-chloro-4-((2-cyclopropyl-3,3-difluoro-7-methyl-6-oxo-1,2,3,4,6,7-hexahydro-[1,4]oxazepino[2,3-c]quinolin-10-yl)amino)pyrimidin-2-yl)piperazin-1-yl)propanenitrile] | –
19 | 6.19 | C[C@@H]1CN(c2ncc(Cl)c(Nc3ccc4c(c3)c3c(c(=O)n4C)C(=O)OC[C@H](C4CC4)N3)n2)C[C@H](C)O1 [Example 8n, (S)-10-((5-chloro-2-((2S,6R)-2,6-dimethylmorpholino)pyrimidin-4-yl)amino)-2-cyclopropyl-7-methyl-2,3-dihydro-[1,4]oxazepino[6,5-c]quinoline-5,6(1H,7H)-dione] | –
20 | 8.65 | (S)-10-((5-chloro-2-((S)-4,4-difluoro-3- (hydroxymethyl)piperidin-1-yl)pyrimidin-4-yl)amino)-2-cyclopropyl- 3,3-difluoro-7-methyl-1,2,3,4-tetrahydro-[1,4]oxazepino[2,3-c]quinolin- 6(7H)-one or (S)-10-((5-chloro-2-((R)-4,4-difluoro-3- (hydroxymethyl)piperidin-1-yl)pyrimidin-4-yl)amino)-2-cyclopropyl- 3,3-difluoro-7-methyl-1,2,3,4-tetrahydro-[1,4]oxazepino[2,3-c]quinolin- 6(7H)-one [Example 12q] | –
21 | 7.55 | (R)-10-((5-chloro-2-((S)-4,4-difluoro-3- (hydroxymethyl)piperidin-1-yl)pyrimidin-4-yl)amino)-2- cyclopropyl-7-methyl-1,2,3,4-tetrahydro- [1,4]oxazepino[2,3-c]quinolin-6(7H)-one or (R)-10-((5-chloro- 2-((R)-4,4-difluoro-3-(hydroxymethyl)piperidin-1-yl)pyrimidin- 4-yl)amino)-2-cyclopropyl-7-methyl-1,2,3,4-tetrahydro- [1,4]oxazepino[2,3-c]quinolin-6(7H)-one [Example 15c] | –
